Source: patent US20240269120A1, “Method for Treating an Autoimmune and Inflammatory Disease” (Cellestia Biotech AG, priority 2021, published 2024)
Values joined by “and” are separate entries in the source; they are usually repeats but may differ in a detail not shown here. Equal values may be shown once.

Assays:
[1] = test system: IL-10 mRNA; test: Quantitative RT-PCR of splenocyte mRNA after in vivo dosing: IL-10; parameters: species or system mouse; conditions: in vivo treated mice vs vehicle; p<0.05; FIG. 3
Method: FIG. 3: In vivo 6-(4-tert-butylphenoxy)pyridin-3-amine dosing leads to an upregulation of anti-inflammatory cytokine IL-10 mRNA in mouse spleen. […] Each bar represents the mean±SD (N=3 replicates). (*) p<0.05
In vivo treatment of mice and pharmacodynamic response: Mice experiments were performed in compliance with authorization to perform animal experiments (VD3323). Briefly, 6-8 weeks old wild type C57Bl6 mice were subcutaneously or intraperitoneally dosed with vehicle or compounds for different durations. Mice were sacrificed, spleens were harvested 24 hours post-last dosing. Splenocytes were analyzed for cell surface and intracellular markers expression using flow cytometry. RNA expression analyses were performed using quantitative real time PCR.

[2] = test system: IFNG; test: Cytokine analysis in allogeneic bone marrow transplant (LEGENDplex): IFNG; format: in vivo, mouse; conditions: allo-BM+splenocyte transplanted mice, day 36, vs vehicle; FIG. 6
Method: (§1) Allogeneic Bone marrow transplant: Recipient Balb/c mice were irradiated twice 3.75Gy (T=0 and T=4 h) in an X-ray source irradiator before transplantation at T=8 h. Treatment with antibiotics (Nopil) and analgesic (Dafalgan) was supplemented to drinking water 4 days before injection. Irradiated recipient Balb/c mice were transplanted with 5 million T cell depleted bone marrow+1 million splenocytes. Allogeneic recipient animals were treated with vehicle or 6-(4-tert-butylphenoxy)pyridin-3-amine subcutaneously at 20 mg/kg for two days immediately after allo-BM transplant, given a 10 days treatment holiday to recover body weight loss due to whole body irradiation and then treatment continued at 20 mg/kg. […] Animals were monitored for symptoms of GvHD development (severe body weight loss, alopecia and diarrhea.
Cytokine analysis in allogeneic Bone marrow transplant: The recipient animals were bled on day 36 and blood plasma was extracted to determine inflammatory cytokine concentration (IFNγ, IL-6, IL-17a) by LEGENDplex™ multiplexed assay.

[3] = test system: IL-10; test: Cytokine profiling in human patient plasma (MSD): IL-10; format: in vivo; conditions: vs baseline
Method: Cytokine profiling in human plasma samples: Plasma samples from patients treated with 6-(4-tert-butylphenoxy)pyridin-3-amine were collected and stored at −80° C. until analysed. Cytokine and chemokine profiling was performed using MesoScale Discovery (MSD) platform and three assay panels: 1) Pro-inflammatory panel human, 2) Human IL-6 assay S-Plex, 3) Human IL-10 assay S-Plex.

[4] = test system: irradiated Balb/c mice transplanted with TCD-BM + splenocytes from C57Bl6 mice (GvHD); test: Allogeneic bone marrow transplant GvHD model; format: in vivo, mouse
Method: as §1
Graft vs host disease (GvHD) is an example of alloimmune disease that develops following allo-hematopoetic stem cell transplant (allo-HSCT) in humans. The activity of 6-(4-tert-butylphenoxy)pyridin-3-amine and a calcineurin inhibitor Cyclosprin A was investigated in a mouse model of GvHD following allo-bone marrow transplant. In this model, T cell depleted bone marrow cells (TCD-BM)+splenocytes from C57Bl6 mice were transplanted into irradiated Balb/c mice.

[5] = test system: IL-6; test: ELISA of supernatant from activated human PBMC cultures: IL-6; format: cell-based; conditions: control 0%
Method: (§2) Human PBMCs and mouse splenocyte in vitro stimulation and treatment: Human peripheral blood mononuclear cells (PBMCs) and mouse splenocytes from donors were stimulated in vitro with anti-CD3 and anti-CD28 antibodies. The stimulated cells were simultaneously treated with compounds for 96 hours. The T cells were profiled for different cell surface and intracellular markers and proliferation by flow cytometry.
(§3) ELISA assay: Supernatant from activated human PBMC cultures described above was separated from cells at the end of culture time. Key cytokines (IL-6, IFN-γ, IL-17) were quantified using sandwich ELISA reagents set (Diaclone) following manufacturer's instruction manual.

[6] = test system: IL-17; test: ELISA of supernatant from activated human PBMC cultures: IL-17; format: cell-based; conditions: control 0%
Method: as §2, §3

[7] = test system: NSG mice injected with human PBMCs (GvHD); test: Humanized GvHD mouse model, ex vivo treated human PBMCs, no in vivo treatment; parameters: GvHD clinical score: Body weight loss: dose or concentration left out as unconfirmed; conditions: day 21
Method: Humanized GvHD mouse model: 6-8 weeks old NSG mice were intraperitoneally injected with 10 million human peripheral blood mononuclear cells (PBMCs) as below:
Ex vivo treatment of PBMCs: 10 million human PBMCs from healthy donor #1 were ex-vivo treated with DMSO and […] of 6-(4-tert-butylphenoxy)pyridin-3-amine for 6 hours. Ex-vivo treated PBMCs were intraperitoneally injected into mice (10 million per mouse). 10 NSG mice were injected with DMSO pre-treated PBMCs and 10 NSG mice were injected with 6-(4-tert-butylphenoxy)pyridin-3-amine pre-treated PBMCS. Following PBMC injections mice were monitored for up to 42 days for symptoms of GvHD development as measured by standardized GvHD clinical score system. No in-vivo drug treatment was administered.
A cumulative GvHD clinical score was calculated by addition of scores for individual parameters (e.g. cumulative score=BWL+posture+activity+fur texture+skin integrity+paleness).

[8] = test system: activated CD8 T cells; test: Cell proliferation assay (Cell trace violet), activated CD8 T cells; format: cell-based; conditions: control 0%
Method: Following PBMC injections, mice were treated with vehicle or 6-(4-tert-butylphenoxy)pyridin-3-amine or Ruxolitinib starting at day 0. Mice were monitored from 60-85 days for symptoms of GvHD and scored according to a standard clinical scoring system for GvHD (Naserian et al., 2018) (see table 1) and a cumulative clinical score was obtained by addition of clinical score for individual parameters. A maximum score of 6 is measured when reaching endpoint. Cell proliferation assay: The effect of compounds on T cell proliferation was quantified using Cell trace violet (CTV). PBMCs/splenocytes were incubated with CTV for 20 minutes at 37° C. Cells were washed twice with RPMI complete medium. CTV labelled cells were stimulated with anti-CD3 and anti-CD28 antibodies and treated with control or compounds and cultured at 37° C. for 96 hours. The cell division index was measured by flow cytometry.
Flow cytometry analysis: Flow cytometry analysis was performed to quantify cell surface and intracellular markers expression and measure cell division index.

[9] = test system: regulatory T cells; test: Regulatory T cells in allo-BM + splenocyte transplanted mice; format: in vivo, mouse
Method: as §1

[10] = PBMCs pre-treated ex-vivo, DMSO group 0.71

CC(C)(C)c1ccc(Oc2ccc(N)cn2)cc1 [6-(4-tert-butylphenoxy)pyridin-3-amine]
IL-10 transcript in splenocytes [1]: upregulation | IFNG in blood plasma [2]: downregulation | Percentage upregulation of IL-10 in blood plasma [3]: 60% | prevention of GvHD development (in words) ([4]; allo-bone marrow transplant, compared with vehicle): prevents development of GvHD | treated animals that developed GvHD ([4]; allo-bone marrow transplant, 60% of vehicle treated animals died due to GvHD, FIG. 5): 20% | animals remained GvHD free ([4]; allogeneic bone marrow+splenocyte transplantation, vehicle 40%, FIG. 5): 80% | Percentage downregulation of IL-6 [5]: 61% | Percentage downregulation of IL-17 [6]: 38% | GvHD clinical score: Body weight loss ([7]; PBMCs pre-treated ex-vivo (6 hours), DMSO group 1.0): 0 | GvHD clinical score: Skin integrity ([7]; PBMCs pre-treated ex-vivo, DMSO group 0.14): 0 | GvHD clinical score: Fur texture ([7]; PBMCs pre-treated ex-vivo, DMSO group 0.57): 0.14 | GvHD clinical score: Activity score [7, 10]: 0.14 | GvHD clinical score: Paleness [7, 10]: 0 | GvHD clinical score: Posture [7, 10]: 0.14 | Cumulative GvHD score ([7]; sum of individual scores, DMSO group 3.84): decreased cumulative GvHD score significantly and 0.42 | Percentage inhibition of CD8 T cells (proliferation) [8]: 56% | regulatory T cells [9]: expansion of regulatory T cells
